“Also recorded” adds a separate entry of the source.
Key:
[1] = Sensory testing of steviol glycoside samples dissolved in water; type: in vivo; conditions: for Sensory Comments: about 300 ppm sample in reverse osmosis water, 2-3 mL tasted by two to three experienced tasters; for sweetness in water compared with Reb M in water: in reverse osmosis water, experienced tasters
Method: Steviol glycoside samples (SG201, SG203, and SG204) were isolated and purified from fermentation broth, purified Reb A and B are of leaf origin, and Reb M is chemically synthesized. All samples were dissolved in reverse osmosis water at the concentrations indicated. Approximately 2-3 milliliters of each solution was tasted and sensory evaluations conducted by two to three experienced tasters.

[2] = cited from earlier work; for taste properties in words: background statements, literature sensory evaluation
[3] = water at room temperature / beverage formulations; cited from earlier work

| SMILES | Sensory Comments [1] | taste properties in words [2] | times sweeter than sucrose ([2]; relative to sucrose (sugar)) | aqueous solubility in words [3] | sweetness in water compared with Reb M in water [1] |
| --- | --- | --- | --- | --- | --- |
| C=C1C[C@@]23CC[C@H]4[C@@](C)(CCC[C@@]4(C)C(=O)O[C@@H]4O[C@H](CO)[C@@H](O)[C@H](O)[C@H]4O[C@@H]4O[C@H](CO)[C@@H](O)[C@H](O)[C@H]4O)[C@@H]2CC[C@]1(O[C@@H]1O[C@H](CO)[C@@H](O)[C@H](O[C@@H]2O[C@H](CO)[C@@H](O)[C@H](O)[C@H]2O)[C@H]1O[C@@H]1O[C@H](CO)[C@@H](O)[C@H](O)[C@H]1O)C3 [Reb D, rebaudioside D] | less bitter; also recorded: better sweetness, | slow onset of sweetness and was very clean | 200-220 times | low solubility in water at room temperature | – |
| C=C1C[C@@]23CC[C@H]4[C@@](C)(CCC[C@@]4(C)C(=O)O[C@@H]4O[C@H](CO)[C@@H](O)[C@H](O)[C@H]4O)[C@@H]2CC[C@]1(O[C@@H]1O[C@H](CO)[C@@H](O)[C@H](O[C@@H]2O[C@H](CO)[C@@H](O)[C@H](O)[C@H]2O)[C@H]1O[C@@H]1O[C@H](CO)[C@@H](O)[C@H](O)[C@H]1O)C3 [Reb A, rebaudioside A] | some sweet, bitter | off-taste issues | – | – | – |
| C=C1C[C@@]23CCC4[C@](C)(C(=O)OC5OC(CO)C(O)C(O)C5OC5OC(CO)C(O)C(O)C5NC(C)=O)CCC[C@@]4(C)[C@@H]2CCC1(OC1OC(CO)C(O)C(OC2OC(CO)C(O)C(O)C2O)C1OC1OC(CO)C(O)C(O)C1O)C3 (stereo partly drawn) [SG204] | bitter, not very sweet | – | – | – | do not exhibit sweetness similar to Reb M |
| C=C1C[C@@]23CC[C@H]4[C@@](C)(CCC[C@@]4(C)C(=O)O[C@@H]4O[C@H](CO)[C@@H](O)[C@H](O[C@@H]5O[C@H](CO)[C@@H](O)[C@H](O)[C@H]5O)[C@H]4O[C@@H]4O[C@H](CO)[C@@H](O)[C@H](O)[C@H]4O)[C@@H]2CC[C@]1(O[C@@H]1O[C@H](CO)[C@@H](O)[C@H](O[C@@H]2O[C@H](CO)[C@@H](O)[C@H](O)[C@H]2O)[C@H]1O[C@@H]1O[C@H](CO)[C@@H](O)[C@H](O)[C@H]1O)C3 [Reb M, rebaudioside M] | good sweetness, almost; also recorded: sucrose-like sensation; also recorded: in mouth | higher sweetness intensity and is more potent than other steviol glycosides | – | poor aqueous solubility and dissolution qualities | – |
| C=C1C[C@@]23CCC4[C@](C)(C(=O)OC5OC(CO)C(O)C(O)C5OC5OC(CO)C(O)C(O)C5O)CCC[C@@]4(C)[C@@H]2CCC1(OC1OC(COC2OC(CO)C(O)C(O)C2O)C(O)C(O)C1OC1OC(CO)C(O)C(O)C1O)C3 (stereo partly drawn) [SG203] | not sweet, meaty, brothy,; also recorded: strecker, methional | – | – | – | do not exhibit sweetness similar to Reb M |
| C=C1C[C@@]23CCC4[C@](C)(C(=O)OC5OC(CO)C(O)C(OC6OC(CO)C(O)C(O)C6O)C5OC5OC(CO)C(O)C(O)C5O)CCC[C@@]4(C)[C@@H]2CCC1(OC1OC(CO)C(O)C(O)C1O)C3 (stereo partly drawn) [SG201] | not sweet, meaty, brothy,; also recorded: strecker, methional | – | – | – | do not exhibit sweetness similar to Reb M |

From patent US20200305481A1, “STEVIOL GLYCOSIDE COMPOSITIONS FOR ORAL INGESTION OR USE” (CARGILL, INCORPORATED, priority 2015, published 2020)
